This is an account of results in US20130204033A1, “ANTIPROLIFERATIVE COMPOUNDS, CONJUGATES THEREOF, METHODS THEREFOR, AND USES THEREOF” (Medarex, Inc., priority 2009, published 2013).

Common to all, as to type: cell-based, human
In one test the test system is ZR-75. Briefly: ATP luminescence proliferation assay, ZR-75. As to conditions: Homo sapiens, ZR75; ATP luminescence, ZR-75, 72 h incubation; read-out: EC50 ZR-75 (72 h). How it is done: (§1) This example generally describes the procedures used to assay the antiproliferative activity of compounds of this invention or their conjugates. Human tumor cell lines were obtained from the American Type Culture Collection (ATCC), P.O. Box 1549, Manassas, Va. 20108, USA, and cultured according to instruction from the ATCC. Cells were seeded at 1.0×10^3 or 1.0×10^4 cells/well in 96-well plates for 3 h for ATP assays or ^3H thymidine assays, respectively. 1:3 serial dilutions of free (unconjugated) compounds or their conjugates were added to the wells. Plates were allowed to incubate for 24 to 72 h. The ^3H thymidine plates were pulsed with 1.0 μCi of ^3H-thymidine per well for the last 24 hours of the total incubation period, harvested, and read on a Top Count Scintillation Counter (Packard Instruments, Meriden, Conn.). ATP levels in the ATP plates were measured using the […]-GLO® Luminescent Cell Viability kit following the manufacturer's manual and read on a GLOMAX® 20/20 luminometer (both from Promega, Madison, Wis., USA). The EC50 values—the concentration at which an agent inhibits or reduces cell proliferation by 50% —were determined using PRISM™ software, version 4.0 (GraphPad Software, La Jolla, Calif., USA).
(§2) Using the ^3H thymidine or the ATP luminescence assay, or both, the activities of compounds of this invention were assayed against the following cancer cell lines: HCT-15 (colorectal cancer, multi-drug resistant (MDR)); Hep3B (liver cancer); LNCaP (prostate cancer, androgen receptor positive (AR^+)); MDA-MB-231 (breast cancer, estrogen receptor, progesterone receptor, and Her2 negative (triple negative)); A2058 (melanoma); U-87 MG (glioblastoma); NCI-H460 (NSCLC); A549 (NSCLC); HPAC (pancreatic cancer, primary); PC3 (prostate cancer, AR); BT474 (breast cancer, Her2 highly positive (Her2hi)); SKOV3 (ovarian cancer, Her2hi); 786-O (renal cancer); UO-31 (renal cancer, MDR); NCI-H740 (SCLC); DMS53 (SCLC); SK-BR3 (breast cancer, Her2hi); ZR-75 (breast cancer, estrogen receptor positive); OVCAR3 (ovarian cancer); HL-60 (APL); OVCAR8/Adr (ovarian cancer, MDR); CEM-Cl (ALL); Nomo-1 (AML); RPMI-8226 (MM)); Raji (lymphoma); SW-480 (colorectal cancer, metastatic); SW-620 (colorectal cancer); and H226 (lung cancer). (Not all compounds were assayed against all cell lines.)
(§3) Table 3 provides the data for the ATP luminescence proliferation assays, with an incubation period of 48, 72, or 96 h, as noted.

The next test has as its system LNCaP. Briefly: ATP luminescence proliferation assay, LNCaP. The conditions noted are these: Homo sapiens, ATP luminescence, 72 h incubation, read-out: EC50 LNCaP (72 h). How it is done: as §1, §2, §3
Test [1] relates to MDA-MB-231. Briefly: 3H thymidine proliferation assay, MDA-MB-231. The conditions noted are these: Homo sapiens, MDA-MB-231; 3H thymidine method, 72 h incubation; read-out: EC50, MDA-MB-231. The method in brief:
(§4)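 Seeding: 1.0×10^4 cells/well, 3 h. Dosing: 1:3 serial dilutions, 72 h. Label: ^3H-thymidine 1.0 μCi/well for last 24 h, scintillation read; EC50 = 50% proliferation reduction.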

A further test deals with NCI-H740. The experiment in a line: ATP luminescence proliferation assay, NCI-H740. As to conditions: Homo sapiens, H740, 72 h incubation. How it is done: as §1, with “Calif., USA). […]” for “Calif., USA).”
as §3

In the next test the test system is HL-60. Briefly: ATP luminescence proliferation assay, HL-60. As to conditions: Homo sapiens; ATP luminescence, HL-60, 72 h incubation; read-out: EC50 HL-60 (72 h). An outline of the steps: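 Read-out: luminescent ATP cell viability after 48, 72 or 96 h incubation, as noted, with 1:3 serial dilutions of unconjugated compounds or their conjugates. Plating was 1.0×10^3 cells/well, 3 h before dosing. EC50 = concentration giving 50% inhibition of proliferation.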

The subject of test [2] is OVCAR3. The experiment in a line: 3H thymidine proliferation assay, OVCAR3. The conditions noted are these: Homo sapiens, OVCAR-3; 3H thymidine method, 72 h incubation; read-out: EC50, OVCAR3. An outline of the steps: as §4
For a further test, the system named is A549. The experiment in a line: ATP luminescence proliferation assay, A549. As to conditions: Homo sapiens; ATP luminescence, A549, 48 h incubation; read-out: EC50 A549 (48 h). As to the method: as §1, §2, §3
Test [3] concerns OVCAR3. Briefly: ATP luminescence proliferation assay, OVCAR3. The conditions noted are these: Homo sapiens, OVCAR-3; ATP luminescence, OVCAR3, 48 h incubation; read-out: EC50 OVCAR3 (48 h). An outline of the steps: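 Human tumor lines, cultured per supplier instructions, are plated at 1.0×10^3 cells/well and allowed 3 h before 1:3 serially diluted test agents are added. Viability is read as ATP luminescence after 48, 72 or 96 h.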

A further test has as its system SK-BR3. The experiment in a line: ATP luminescence proliferation assay, SK-BR3. The conditions noted are these: Homo sapiens, SK-BR-3; ATP luminescence, SK-BR3, 72 h incubation; read-out: EC50 SK-BR3 (72 h). How it is done: as §1, §2, §3
Test [4] deals with MDA-MB-231. The experiment in a line: ATP luminescence proliferation assay, MDA-MB-231. As to conditions: Homo sapiens; ATP luminescence, MDA-MB-231, 72 h incubation; read-out: EC50 MDA-MB-231 (72 h). How it is done: as §1, §2, §3
Another test deals with Hep3B. The experiment in a line: 3H thymidine proliferation assay, Hep3B. The conditions noted are these: Homo sapiens, Hep3B; 3H thymidine method, 72 h incubation; read-out: EC50, Hep3B. The method in brief:
as §4

In another test the test system is RPMI-8226. Briefly: ATP luminescence proliferation assay, RPMI-8226. As to conditions: Homo sapiens; ATP luminescence, RPMI-8226, 72 h incubation; read-out: EC50 RPMI-8226 (72 h). How it is done:
as §1, §2, §3

With `Nc1ccc(C(=O)Nc2ccc3[nH]c(C(=O)N4C[C@@H](CCl)c5c4cc(O)c4ccccc54)cc3c2)cc1` [CBI, reference compound], the EC50 with ZR-75 amounted to 2.2 nM; in the test on LNCaP, 3.3 nM; with MDA-MB-231 [1], 0.019 nM; in the test on NCI-H740 it was 2.2 nM; in the test on HL-60, 0.76 nM; in the test on OVCAR3 [2], 0.071 nM. Moreover, the concentration for a half-maximal effect (EC50) with A549 worked out at 3 nM; in the test on OVCAR3 [3], 4.1 nM; with SK-BR3, 3.1 nM; with MDA-MB-231 [4] it was 3.1 nM; in the test with Hep3B, 0.02 nM; in the test on RPMI-8226 it was 4.1 nM.
